Assay results taken from patent US20250346582A1, “SPLEEN TYROSINE KINASE INHIBITORS AND METHODS OF USE THEREOF” (THE BOARD OF TRUSTEES OF THE UNIVERSITY OF ILLINOIS, priority 2022, published 2025).

Experiments:
[1] = tested on: Syk WT, E164D and E164Q; test: Phosphorylation in Syk-deficient MV4-11 cells re-expressing Syk WT or E164 mutants; type: cell-based, human; settings: Syk-deficient MV4-11 cells with full-length E164D or E164Q; 5 μM overnight
Method: (§1) FIGS. 5A-5B show cellular target validation of WC36. (a) Inhibition of Syk WT and WC36-binding site mutants by WC36. Entospletinib-resistant MV4-11 cells were treated with shRNA to suppress the expression of endogenous Syk and then transfected with exogenous Syk-WT and four Syk-[…] genes, respectively. These constructs harbor silent mutations to avoid gene suppression by Syk ShRNA. Phosphorylation of Syk and ERK1/2 in these cells was then monitored before and after treatment with 5 μM WC36 overnight. […] (b) Western blot analysis of WC36B-binding proteins captured by pull-down by streptavidin beads. Biotin was used as a negative control. GAPDH was used as a gel loading control.
(§2) Cells were seeded at a density of 3.0×10^5 cells/well prior to incubation with inhibitors. Cells were incubated with 1-5 μM of Syk inhibitors overnight and stimulated with different antibodies: IgG2 for AML cells, IgM for Raji B cells, and OKT3 (Biolegend) for Jurkat cells. The cells were lysed in NP40 lysis buffer (50 mM Tris, pH 7.5, 150 mM NaCl, 1 mM EDTA, 1% NP40, 10% glycerol, 10 mM NaF, 10 mM Na3VO4, and the protease inhibitor cocktail) at 4° C. and the cell debris was removed by centrifugation. Samples were analyzed by SDS-PAGE. […] The chemiluminescence intensity of protein bands in the gel was analyzed and documented by the Azure 500Q Imaging System.

[2] = molecular target: T1, Syk WT, E164D and E164Q (Homo sapiens, UniProt P43405); test: as above; type: cell-based; settings: Syk WT added back to Syk-deficient AML cells; 5 μM overnight
T1 construct: When the full-length E164D and E164Q, respectively, were introduced into Syk-deficient MV4-11 cells; expressed in transfected cells; host or cells: entospletinib-resistant MV4-11 cells with shRNA knockdown of endogenous Syk
Method: as §1, §2

[3] = molecular target: T2, Syk-cSH2 E164Q (Homo sapiens, UniProt P43405, E164Q); test: Fluorescence quenching vesicle binding assay, Syk-cSH2 E164Q mutant; settings: POPC/POPS/PIP3/dabsyl-PE vesicles
T2 construct: polyhistidine (N); made in house; host or cells: Escherichia coli BL21 (DE3) pLysS
Method: The membrane-binding assay is based on fluorescence quenching of EGFP fused to a SH2 domain by a dark quencher containing lipid, dabsyl-PE, incorporated in lipid vesicles. The plate reader assay was performed using the Synergy™ Neo spectrofluorometer at 25° C. Nontreated black polystyrene 96-well plates (Corning) were used. Protein (10-50 nM) with the increasing concentration of vesicles with a given lipid composition in 20 mM Tris buffer, pH 7.4, containing 0.16 M NaCl was added to each row of wells and the EGFP fluorescence emission at 516 nm was measured with excitation set at 485 nm. Z′ factor for the assay system was determined as described^74. Imax and IC50 values of inhibitors were determined using the equation, I=Imax/(1+IC50/[I]) where I and [I] indicate % inhibition and inhibitor concentration, respectively. The average and standard deviation values were obtained from triplicate determinations.

[4] = molecular target: T3, Syk (Homo sapiens, UniProt P43405); test: Streptavidin pull down assay with WC36B in MV4-11 cells; type: cell-based; settings: WC36B-streptavidin pull down
T3 construct: host or cells: MV4-11 AML cells (naive and entospletinib-resistant)
Method: Streptavidin-coated beads (Dynabeads™ M280 streptavidin beads; ThermoFisher) were washed twice with 1 ml of PBST (PBS+0.1% Tween 20) and resuspended in 100 μl of PBST. WC36B (or biotin) (10 mM) was added to 100 μl of the bead suspension and the mixture was incubated at room temperature for 15 min with gentle shaking. The mixture was then vortexed for 5 s and the tube was placed on a magnet for 1 min. After discarding the supernatant, the beads were resuspended in the same volume of the washing buffer. Washing is repeated three times to remove excess WC36B. WC36B-coated beads were then incubated with the cell lysate (MV-4-11) for 30 min at room temperature with gentle shaking. Protein-coated beads were separated with a magnet for 2-3 min and washed 4-5 times with PBS containing 0.1% BSA. The protein was then removed from the beads by boiling the beads in the SDS-polyacrylamide gel electrophoresis (PAGE) application buffer. Samples were concentrated for the mass spectrometry analysis and the western blot assay.

## [N-]=[N+]=C(C(=O)OC1CCCCC1)C(Nc1ncccn1)c1c[nH]c2ccccc12 (racemic) [WC36, Cyclohexyl 2-diazo-3-(1H-indol-3-yl)-3-(pyrimidin-2-ylamino)propanoate]
[1]
  inhibition of phosphorylation of Syk E164D/E164Q and ERK1/2: did not inhibit phosphorylation of these mutants and ERK1/2
[2]
  inhibition of phosphorylation of Syk WT and ERK1/2: potently suppressed phosphorylation of Syk WT and ERK1/2
[3]
  inhibition of membrane binding of Syk-cSH2 E164Q: refractory to WC36 inhibition
[4]
  competition with WC36B for Syk binding: able to compete with WC36B for Syk binding
